Assays:
Test in all cases: relative viability (nuclei count vs DMSO), 5 days (fraction); higher = more cells survive
[1] = compound: CNC(=O)c1ccccc1Sc1ccc2c(/C=C/c3ccccn3)n[nH]c2c1 [Axitinib] + CC(=O)Nc1cccc(-n2c(=O)n(C3CC3)c(=O)c3c(Nc4ccc(I)cc4F)n(C)c(=O)c(C)c32)c1 [Trametinib] (partner 0.02 µM)
Summary of the method: (§1)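 Dosing by pin tool came one day after lung cancer cell lines were seeded in 1536-well plates, using either one drug or a fixed anchor-drug dose plus five library-drug doses (not always all listed) in √10 steps. After 5 days, nuclei were counted on 4× images. Relative viability is treated-well nuclei count divided by vehicle-well nuclei count, and values are medians of duplicate plates.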

[2] = compound: CC1=CC=C(C=C1)C(=O)CN2C3=C(CCCC3)SC2=N [Pifithrin_alpha] + CS(=O)(=O)CCNCc1ccc(-c2ccc3ncnc(Nc4ccc(OCc5cccc(F)c5)c(Cl)c4)c3c2)o1 [Lapatinib] (partner 2 µM)
Summary of the method: as §1

[3] = compound: CNC(=O)c1ccccc1Sc1ccc2c(/C=C/c3ccccn3)n[nH]c2c1 [Axitinib] + CS(=O)(=O)CCNCc1ccc(-c2ccc3ncnc(Nc4ccc(OCc5cccc(F)c5)c(Cl)c4)c3c2)o1 [Lapatinib] (partner 2 µM)
Summary of the method: as §1

[4] = compound: CNC(=O)c1ccccc1Sc1ccc2c(/C=C/c3ccccn3)n[nH]c2c1 [Axitinib] + Cc1nc(Nc2ncc(C(=O)Nc3c(C)cccc3Cl)s2)cc(N2CCN(CCO)CC2)n1 [Dasatinib] (partner 0.075 µM)
Summary of the method: as §1

Cell Line	relative viability ([1]; first compound 0.005 µM)	relative viability ([1]; first compound 0.01581 µM)	relative viability ([1]; first compound 0.05 µM)	relative viability ([1]; first compound 0.1581 µM)	relative viability ([1]; first compound 0.5 µM)	relative viability ([2]; first compound 1 µM)	relative viability ([2]; first compound 3.162 µM)	relative viability ([2]; first compound 10 µM)	relative viability ([2]; first compound 31.62 µM)	relative viability ([2]; first compound 100 µM)	relative viability ([3]; first compound 0.005 µM)	relative viability ([3]; first compound 0.01581 µM)	relative viability ([3]; first compound 0.05 µM)	relative viability ([3]; first compound 0.1581 µM)	relative viability ([3]; first compound 0.5 µM)	relative viability ([4]; first compound 0.005 µM)	relative viability ([4]; first compound 0.01581 µM)	relative viability ([4]; first compound 0.05 µM)	relative viability ([4]; first compound 0.1581 µM)	relative viability ([4]; first compound 0.5 µM)
SK-MES-1	0.553	0.562	0.569	0.485	0.581	0.461	0.447	0.458	0.439	0.447	0.492	0.454	0.53	0.446	0.547	0.42	0.435	0.446	0.382	0.622
NCI-H1648	0.622	0.553	0.335	0.525	0.509															
PC-3 [JPC-3]	0.756		0.626	0.762	0.741	0.392	0.421	0.401	0.414	0.326	0.483		0.453	0.445	0.447	1.07	1.01	1.02	1	1.01
NCI-H1666	0.904	0.868	0.863	0.847	0.873	0.503	0.405	0.286	0.337	0.365	0.767	0.741	0.608	0.62	0.946	0.836	0.838	0.825	0.88	0.829
IA-LM						0.624	0.788	0.498	0.407	0.322	0.83	0.884	0.781	0.747	0.788					
HCC-78	0.955	0.683	0.518	0.615	0.986	0.432	0.77	0.693		0.619	0.865	0.724	0.642	0.701	0.47	0.328	0.288	0.534	0.387	0.329
HCC-366	0.415	0.417	0.391	0.359	0.333	0.861	1.24	1.1		1.06	0.99	0.961	1.09	1.03	1.16	0.7	0.646	0.711	0.581	0.455
NCI-H520	0.704	0.542	0.733	0.541	0.686	1.01	0.978	0.88	0.694	0.878	0.902	0.778	0.771	0.751	0.785	0.197	0.159	0.194		0.192
NCI-H1355	0.409	0.423	0.397	0.417	0.493	0.765	0.756	0.699	0.616	0.702	0.976	1.08	0.994	1	0.893	0.723	0.766	0.779	0.757	0.642
SW 1573	0.525	0.558	0.665	0.521	0.611	1.1	1.14	1.02	0.798	0.81	1.15	1.09	1.29	1.06	1.03	0.586	0.564	0.796	0.365	0.424
COR-L 105	0.478	0.414	0.446	0.452	0.466	0.343	0.395	0.336	0.321	0.533	0.355	0.357	0.328	0.381	0.38	0.318	0.327	0.417	0.303	0.415
COR-L23	0.693	0.623	0.785	0.527	0.656	1.05	1.28	1.06		0.926	0.975	0.963	1.12	0.808	1.12	0.53	0.542	0.438	0.493	0.674
NCI-H322M	0.577	0.458	0.48	0.467	0.486	0.578	0.621	0.557	0.635	0.613	0.658	0.603	0.591	0.566	0.652	0.253	0.231	0.239	0.259	0.246
NCI-H2347	0.257	0.292	0.427	0.279	0.318	0.811	0.911	0.902	0.705	0.911	0.979	0.971	0.966	1.04	0.922	0.304	0.324	0.288	0.308	0.323
RERF-LC-KJ	0.952	0.91	0.875	0.833	0.966	0.819	0.865	0.836	0.747	0.768	0.865	0.829	0.824	0.809	0.932	0.853	0.898	0.998	0.822	0.904
NCI-H2228	0.683	0.515	0.561	0.478	0.509	1.25	1.19	0.848	0.747	0.904	1.28	0.959	1.09	1.29	1.39	0.471	0.616	0.558	0.476	0.697
A549						1.12	1	0.838	0.766	0.739	0.896	1	0.997	0.902	1.01					
NCI-H358	0.137	0.13	0.144	0.125	0.14	0.507	0.447	0.486	0.425	0.429	0.46	0.401	0.437	0.374	0.469	0.116	0.153	0.155	0.142	0.146
NCI-H2342	0.789	0.751	0.703	0.881	0.794											0.311	0.325	0.347	0.349	0.297
A-427	0.89	0.711	0.758	0.761	0.879	0.981	0.877	0.99	0.845	1.18	1.1	1.01	1.08	1.06	1.06	0.69	0.644	0.807	0.697	0.769

Cell Line	relative viability ([1]; first compound 0.005 µM)	relative viability ([1]; first compound 0.01581 µM)	relative viability ([1]; first compound 0.05 µM)	relative viability ([1]; first compound 0.1581 µM)	relative viability ([1]; first compound 0.5 µM)	relative viability ([2]; first compound 1 µM)	relative viability ([2]; first compound 3.162 µM)	relative viability ([2]; first compound 10 µM)	relative viability ([2]; first compound 31.62 µM)	relative viability ([2]; first compound 100 µM)	relative viability ([3]; first compound 0.005 µM)	relative viability ([3]; first compound 0.01581 µM)	relative viability ([3]; first compound 0.05 µM)	relative viability ([3]; first compound 0.1581 µM)	relative viability ([3]; first compound 0.5 µM)	relative viability ([4]; first compound 0.005 µM)	relative viability ([4]; first compound 0.01581 µM)	relative viability ([4]; first compound 0.05 µM)	relative viability ([4]; first compound 0.1581 µM)	relative viability ([4]; first compound 0.5 µM)
NCI-H2126	0.536	0.612	0.578	0.603	0.545	0.614	0.643	0.68	0.536	0.658	0.765	0.745	0.771	0.71	0.729	0.625	0.635	0.64	0.565	0.578
NCI-H647	0.587	0.484	0.49	0.407	0.506	0.978	0.997	0.975		0.966	1.07	1.09	1.29	1.09	1.41	0.206	0.182	0.194	0.18	0.126
ChaGo-K-1	0.872	0.874	0.902	0.858	0.887											0.611	0.552	0.583	0.423	0.611
UMC-11	0.709	0.668	0.572	0.691	0.616	1.03	1.06	0.933	0.764	1.06	0.945	1.06	0.959	0.916	0.943	0.447	0.442	0.448	0.444	0.54
LOU-NH91	0.778	0.732	0.807	0.766	0.818	0.576	0.604	0.633	0.492	0.493	0.839	0.789	0.836	0.711	0.705	0.569	0.434	0.61	0.558	0.568
HCC-44	1.05	1.1	1.05	1.06	1.03	0.932	0.965	0.791	0.641	0.763	1.08	1.02	1.01	1.09	1.01					
HCC-15	0.403	0.417	0.378	0.372	0.383	0.636	1.05	0.734	0.666	0.845	0.884	0.872	0.831	0.836	0.848	0.658	0.673	0.658	0.56	0.622
NCI-H1975	0.44	0.361	0.325	0.348	0.328	0.895	0.544	0.655	0.489	0.761	1.02	0.841	0.899	0.871	0.953	0.413	0.342	0.393	0.347	0.39
NCI-H1651	0.9	0.84	0.744	0.797	0.826	0.633	0.763	0.865	0.537	0.741	0.89	0.706	0.929	0.713	0.942	0.482	0.396	0.409	0.404	0.502
NCI-H522	0.87	0.752	0.853	0.633	0.81											1.51	0.842	0.883	0.898	0.728
NCI-H1563						0.623	0.863	0.931	0.769	1.01	0.956	0.85	0.931	0.863	0.694	0.482	0.456	0.457	0.449	0.426
NCI-H1703						1.07	1.03	1.04	0.863	1.32	0.848	0.423	0.274	0.273	0.441					
Calu-6						1.02	1.03	0.986	0.675	1.07	1.07	1.11	1.08	1.06	1.39					
NCI-H441	0.521	0.404	0.331	0.485	0.567											0.592	0.722	0.595	0.575	0.604
EBC-1						0.21	0.225	0.192	0.213	0.165	0.218	0.218	0.172	0.239	0.221					
SW 900	0.915		0.926	0.687	0.943											0.439	0.555	0.663	0.653	0.709
NCI-H1299						0.976	0.985	1.02	0.73	0.947	0.956	0.993	0.96	0.97	1.02					
LCLC-103H	0.737	0.651	0.685	0.705	0.693											0.524	0.516	0.483	0.402	0.364
NCI-H1623																0.574	0.477	0.559	0.528	0.506
ABC-1						1.36	1.24	0.923		1.36	1.19	1.28	1.01	1.32	1.21	0.738	0.686	0.486		0.638

Source: the supplement of paper PMC10307832
